Experimental data: patent US6020334A, “Piperazinones, their production and use” (Takeda Chemical Industries, Ltd., priority 1995, dated 2000)

Key:
[1] = tested on: platelet aggregation by ADP; experiment: Platelet aggregation in vitro (inhibition of ADP-induced aggregation of guinea pig PRP, Born's method); assay type: cell-based, guinea pigs; settings: Cavia porcellus, ADP 0.6-1 μM, 37° C.
Protocol: Determination of Platelet Aggregation in Vitro
Blood was collected from abdominal aorta of guinea pigs under anesthesia with pentobarbital (20 mg/kg, i.p.) using sodium citrate as an anticoagulant (final concentration: 0.315%). The sodium citrate--supplemented blood was centrifuged at 950 rpm for 10 minutes and 2,000 rpm for 10 minutes respectively at room temperature to obtain platelet rich plasma (PRP) and platelet poor plasma (PPP). The number of platelet was counted an automatic platelet counter (Sysmex E2500, Toaiyo-denshi). PRP was diluted with PPP to adjust the number of platelets to be 500,000/μl. Platelet aggregation was measured as follows, in accordance with Born's method (Nature 194: 927, 1962), using an 8-channel aggregometer (NBS HEMA TRACER VI, Niko Bioscience Inc.): The PRP (250 μl) was incubated at 37° C. for 2 minutes, to which was then added 25 μl of a test drug solution. Two minutes later, 25 μl of an agent (ADP) for causing agglutination. The effect of the test drug was shown by the inhibition rate of the maximum aggregation rate of the test group against that of the control group. ADP was used in the minimum concentration (0.6-1 μM) capable of obtaining maximum aggregation.

[2] = Bleeding time in guinea pigs (continuous intravenous infusion, Simplate R incision); assay type: in vivo; settings: continuous i.v. infusion for 90 minutes
Protocol: (§1) Bleeding Time in Guinea Pigs and Determination of Ex Vivo Platelet Aggregation Inhibitory Action
(§2) Male Hartley guinea pigs (body weight: about 400 g) were employed. These animals were intravenously infused continuously, under anesthesia with pentobarbital, with a physiological saline solution or receptor-antagonistdissolved in the solution at a dose of 10 μl/kg/min.
After the continuous infusion for 90 minutes, the thigh of each animal was applied with a rubber cuff and charged with 40 mmHg, then given an incised sound with Simplate R (Organon Teknika). Thereafter, at 30 sec. each interval, blood was absorbed into a filter paper. The time until no more blood was absorbed into the filter paper was measured. The bleeding time of normal five guinea pigs was about 276 sec.

[3] = tested on: ex vivo platelet aggregation; experiment: Ex vivo platelet aggregation inhibitory action (PRP of infused guinea pigs, ADP); assay type: in vivo; settings: continuous i.v. infusion for 90 minutes, ADP 0.5 to 1 μM
Protocol: as §1, §2
After 90 minutes of the continuous infusion, blood was collected from abdominal aorta using sodium citrate (whole blood:3.15% citric acid solution=9:1 by volume). […]
Platelet aggregation was measured by using an 8-channel photo-extinction type platelet aggregometer (NBS/HEMA TRACER 801, Niko Bioscience). […] The PRP was set in the aggregometer and incubated for two minutes at 37° C., to which was added 20 μl of ADP (0.5 to 1 μM), and the changes of transmittance were recorded. The difference of PRP and PPP in photo-extinction was assumed 100%, and, with the maximum photo-extinction rates, the maximum aggregation rates (%) were determined. The effects of the drugs were determined by comparing the maximum aggregation rates (%) of animals continuously infused with a physiological saline solution with those of animals continuously infused with receptor antagonist.

Q: Which IC50 [1] does the source give for `N=C(N)c1ccc(C(=O)NCC(=O)N2CCN(CC(=O)O)C(=O)[C@@H]2CCCN)cc1` [compound 1] here?
A: 0.52 µM

Q: Which IC50 [1] does the source give for `N=C(N)c1ccc(C(=O)NCCC[C@H]2C(=O)N(CC(=O)O)CCN2C(=O)CNC(=O)c2ccc(C(=N)N)cc2)cc1` [compound 2] here?
A: 0.037 µM

Q: And the Bleeding time ([2]; 2 μg/kg/min)?
A: 308 ± 33 s

Q: What about the “Inhibitory rate (ex vivo platelet aggregation inhibition)” value ([3]; 2 μg/kg/min) of the same compound?
A: 100%

Q: With `COc1ccc(C[C@H](NC(=O)c2ccc(C(=N)N)cc2)C(=O)N2CCN(CC(=O)O)C(=O)[C@@H]2CCCN)cc1` [compound 5] as the compound, how does the IC50 [1] read?
A: 0.016 µM

Q: With `COc1ccc(C[C@H](NC(=O)c2ccc(C(=N)N)cc2)C(=O)N2CCN(CC(=O)O)C(=O)[C@@H]2CCCNC(=O)c2ccc(C(=N)N)cc2)cc1` [compound 6] as the compound, how does the IC50 [1] read?
A: 0.02 µM

Q: For `COc1ccc(C[C@H](NC(=O)c2ccc(C(=N)N)cc2)C(=O)N2CCN(CC(=O)O)C(=O)[C@@H]2CCCCN)cc1` [compound 7], which IC50 [1] is on record?
A: 0.019 µM

Q: For `COc1ccc(C[C@H](NC(=O)c2ccc(C(=N)N)cc2)C(=O)N2CCN(CC(=O)O)C(=O)[C@@H]2CCCCNC(=O)c2ccc(C(=N)N)cc2)cc1` [compound 8], which IC50 [1] is on record?
A: 0.012 µM

Q: Which IC50 [1] does the source give for `N=C(N)c1ccc(C(=O)NCC(=O)N2CCN(CC(=O)O)C(=O)[C@@H]2CCCNC(=O)CCCCCN)cc1` [compound 9] here?
A: 0.18 µM

Q: Which IC50 [1] does the source give for `N=C(N)c1ccc(C(=O)NCC(=O)N2CCN(CC(=O)O)C(=O)[C@@H]2CCCNC(=O)CCCCN)cc1` [compound 10] here?
A: 0.2 µM

Q: With `N=C(N)c1ccc(C(=O)NCC(=O)N2CCN(CC(=O)O)C(=O)[C@@H]2CCCNC(=O)CCCN)cc1` [compound 11] as the compound, how does the IC50 [1] read?
A: 0.23 µM

Q: For `COc1ccc(C[C@H](NC(=O)c2ccc(C(=N)N)cc2)C(=O)N2CCN(CC(=O)O)C(=O)[C@@H]2CCCCNC(=N)N)cc1` [compound 12], which IC50 [1] is on record?
A: 0.025 µM

Q: With `N=C(N)NCCCC(=O)NCCC[C@H]1C(=O)N(CC(=O)O)CCN1C(=O)CNC(=O)c1ccc(C(=N)N)cc1` [compound 13] as the compound, how does the IC50 [1] read?
A: 0.11 µM

Q: Which IC50 [1] does the source give for `N=C(N)Nc1ccc(C(=O)NCCC[C@H]2C(=O)N(CC(=O)O)CCN2C(=O)CNC(=O)c2ccc(NC(=N)N)cc2)cc1` [compound 15] here?
A: 0.051 µM

Q: What about the Bleeding time ([2]; 3 μg/kg/min) of the same compound?
A: 250 ± 26 s

Q: And the “Inhibitory rate (ex vivo platelet aggregation inhibition)” value ([3]; 3 μg/kg/min)?
A: 100%

Q: For `N=C(N)Nc1ccc(C(=O)NCC[C@H]2C(=O)N(CC(=O)O)CCN2C(=O)CNC(=O)c2ccc(C(=N)N)cc2)cc1` [compound 16], which IC50 [1] is on record?
A: 0.044 µM

Q: For `N=C(N)c1ccc(C(=O)NCC(=O)N2CCN(CC(=O)O)C(=O)[C@@H]2CN)cc1` [compound 17], which IC50 [1] is on record?
A: 0.24 µM

Q: Which IC50 [1] does the source give for `N=C(N)c1ccc(C(=O)NCC(=O)N2CCN(CC(=O)O)C(=O)[C@@H]2CNC(=O)c2ccc(C(=N)N)cc2)cc1` [compound 18] here?
A: 0.13 µM

Q: With `N=C(N)c1ccc(C(=O)NCC[C@H]2C(=O)N(CC(=O)O)CCN2C(=O)CNC(=O)c2ccc(C(=N)N)cc2)cc1` [compound 19] as the compound, how does the IC50 [1] read?
A: 0.18 µM

Q: Which IC50 [1] does the source give for `N=C(N)c1ccc(C(=O)NCCC[C@@H]2C(=O)N(CC(=O)O)CCN2C(=O)CNC(=O)c2ccc(C(=N)N)cc2)cc1` [compound 22] here?
A: 3.8 µM

Q: With `N=C(N)Nc1ccc(C(=O)NCCC[C@H]2C(=O)N(CC(=O)O)CCN2C(=O)CNC(=O)c2ccc(C(=N)N)cc2)cc1` [compound 23] as the compound, how does the IC50 [1] read?
A: 0.017 µM

Q: With `N=C(N)c1ccc(NC(=O)CC[C@H]2C(=O)N(CC(=O)O)CCN2C(=O)CNC(=O)c2ccc(C(=N)N)cc2)cc1` [compound 24] as the compound, how does the IC50 [1] read?
A: 0.25 µM

Q: With `N=C(N)Cc1ccc(C(=O)NC[C@H]2C(=O)N(CC(=O)O)CCN2C(=O)CNC(=O)c2ccc(C(=N)N)cc2)cc1` [compound 25] as the compound, how does the IC50 [1] read?
A: 0.054 µM

Q: For `N=C(N)NCc1ccc(C(=O)NC[C@H]2C(=O)N(CC(=O)O)CCN2C(=O)CNC(=O)c2ccc(C(=N)N)cc2)cc1` [compound 26], which IC50 [1] is on record?
A: 0.084 µM

Q: For `COc1ccc(C[C@H](NC(=O)c2ccc(C(=N)N)cc2)C(=O)N2CCN(CC(=O)O)C(=O)[C@@H]2CCCNC(=O)CCCCCN)cc1` [compound 27], which IC50 [1] is on record?
A: 0.018 µM

Q: For `COc1ccc(C[C@H](NC(=O)c2ccc(C(=N)N)cc2)C(=O)N2CCN(CC(=O)O)C(=O)[C@@H]2CCCCNC(=O)CN)cc1` [compound 28], which IC50 [1] is on record?
A: 0.019 µM

Q: Which IC50 [1] does the source give for `COC(=O)ON=C(N)c1ccc(C(=O)NCCC[C@H]2C(=O)N(CC(=O)O)CCN2C(=O)CNC(=O)c2ccc(C(N)=NOC(=O)OC)cc2)cc1` [compound 30] here?
A: 19 µM

Q: For `COC(=O)ON=C(N)c1ccc(C(=O)NCCC[C@H]2C(=O)N(CC(=O)O)CCN2C(=O)CNC(=O)c2ccc(C(=N)N)cc2)cc1` [compound 31], which IC50 [1] is on record?
A: 0.19 µM

Q: With `N=C(N)c1ccc(C(=O)NCCC[C@H]2C(=O)N(CC(=O)O)CCN2C(=O)CNC(=O)c2ccc(CCN)cc2)cc1` [compound 32] as the compound, how does the IC50 [1] read?
A: 0.053 µM
